Entries after “also recorded” stand apart in the source; their conditions may differ.
Test system: SARS-CoV-2
Assay type: cell-based, SARS-CoV-2 alpha variant

c1ccc(-c2ccc(CNc3nc(-c4ccccn4)nnc3-c3ccccc3)cc2)cc1 [ML228]
SARS-CoV-2 replication (virus N2 RNA level): strongly reduced; also recorded: significantly decreased

From patent publication US20240350503A1, “COMPOUNDS FOR TREATMENT OF VIRAL INFECTIONS BY NEUROTROPIC VIRUS” (priority 2021, published 2024)
